Here are results for 23 molecules from patent US11840497B2, “4-(p-quinonyl)-2-hydroxybutanamide derivatives for treatment of mitochondrial diseases” (PTC Therapeutics, Inc., priority 2007, dated 2023).

Holding throughout (assay type): cell-based
The test system of assay [1] is human dermal fibroblasts from LHON patients. Put plainly: Rescue of BSO-stressed fibroblasts from LHON patients (Example C). The settings on record: Fibroblast, LHON fibroblasts GM03858, screen as Example A, read-out: protection against LHON, EC50. The protocol: The compounds were tested for their ability to rescue human dermal fibroblasts from LHON patients from oxidative stress.

Assay [2] has as its system Human dermal fibroblasts from Friedreich's Ataxia patients. The experiment in a line: Rescue of BSO-stressed FRDA fibroblasts (Example A). The following applies: FRDA fibroblasts GM04078, 1 mM BSO. The protocol: Test samples, 4 reference compounds (idebenone, decylubiquinone, Trolox and α-tocopherol acetate), and solvent controls were tested for their ability to rescue FRDA fibroblasts stressed by addition of L-buthionine (S,R)-sulfoximine (BSO), as described in Jauslin et al., Hum. Mol. Genet. […] Mol. Genet. […] This specific BSO-mediated cell death can be prevented by administration of antioxidants or molecules involved in the antioxidant pathway, such as α-tocopherol, selenium, or small molecule glutathione peroxidase mimetics. However, antioxidants differ in their potency, i.e. the concentration at which they are able to rescue BSO-stressed FRDA fibroblasts.
Fetal Calf Serum was obtained from PAA Laboratories. Basic fibroblast growth factor and epidermal growth factor were purchased from PeproTech. Penicillin-streptomycin-glutamine mix, L-buthionine (S,R)-sulfoximine, (+)-α-tocopherol acetate, decylubiquinone, and insulin from bovine pancreas were purchased from Sigma. Trolox (6-Hydroxy-2,5,7,8-tetramethylchroman-2-carboxylic acid) was obtained from Fluka. Idebenone was obtained from Chemo Iberica. Calcein AM was purchased from Molecular Probes. Cell culture medium was made by combining 125 ml M199 EBS, 50 ml Fetal Calf Serum, 100 U/ml penicillin, 100 μg/ml streptomycin, 2 mM glutamine, 10 μg/ml insulin, 10 ng/ml EGF, and 10 ng/ml bFGF; MEM EBS was added to make the volume up to 500 ml. […] During the course of the experiments, this solution was stored at +4° C. The cells were obtained from the Coriell Cell Repositories (Camden, NJ; repository number GM04078) and grown in 10 cm tissue culture plates. Every third day, they were split at a 1:3 ratio.
The test samples were supplied in 1.5 ml glass vials. […] Once dissolved, they were stored at −20° C. Reference antioxidants (idebenone, decylubiquinone, α-tocopherol acetate and trolox) were dissolved in DMSO.
Test samples were screened according to the following protocol: A culture with FRDA fibroblasts was started from a 1 ml vial with approximately 500,000 cells stored in liquid nitrogen. […] Once confluent, fibroblasts were harvested. […] The remaining cells were distributed in 10 cm cell culture plates (500,000 cells/plate) for propagation. The plates were incubated overnight at 37° C. in a atmosphere with 95% humidity and 5% CO2 to allow attachment of the cells to the culture plate.
MTP medium (243 μl) was added to a well of the microtiter plate. […] Serial dilutions from the master solution were made. The period between the single dilution steps was kept as short as possible (generally less than 1 second).
Plates were kept overnight in the cell culture incubator. The next day, 10 μl of a 10 mM BSO solution were added to the wells, resulting in a 1 mM final BSO concentration. Forty-eight hours later, three plates were examined under a phase-contrast microscope to verify that the cells in the 0% control (wells E1-H1) were clearly dead. The medium from all plates was discarded, and the remaining liquid was removed by gently tapping the plate inversed onto a paper towel.
The plates were incubated for 50-70 minutes at room temperature. After that time the PBS was discarded, the plate gently tapped on a paper towel and fluorescence (excitation/emission wavelengths of 485 nm and 525 nm, respectively) was read on a Gemini fluorescence reader. Data was imported into Microsoft Excel (EXCEL is a registered trademark of Microsoft Corporation for a spreadsheet program) and used to calculate the EC50 concentration for each compound.
The compounds were tested three times, i.e., the experiment was performed three times, the passage number of the cells increasing by one with every repetition.
The viability of non-BSO treated fibroblasts was set as 100%, and the viability of the BSO- and compound-treated cells was calculated as relative to this value.

Assay [3] deals with human dermal fibroblasts from Huntington's patients. Put plainly: Rescue of BSO-stressed fibroblasts from Huntington's patients (Example B). The following applies: Fibroblast, Huntington's fibroblasts GM 04281, screen as Example A, read-out: protection against Hungtington's, EC50. The protocol: The compounds were tested for their ability to rescue human dermal fibroblasts from Huntington's patients from oxidative stress.

Setting [4] is: read-out: protection against FRDA, EC50.
[5] abbreviates: Calcein AM viability, average of three values, read-out: EC50 Average.
The mark [6] stands for this setting: Calcein AM viability, experiment 1 of 3, read-out: EC50 Value 1.
Setting [7] is: Calcein AM viability, experiment 2 of 3, read-out: EC50 Value 2.
The mark [8] stands for this setting: Calcein AM viability, experiment 3 of 3, read-out: EC50 Value 3.

Read-outs that look alike come from different tables or passages of the source.

For orientation: EC50 means the concentration at which the effect is half-maximal. On to `CC1=C(C)C(=O)C(CCC(C)(O)C(=O)N2CCN(C(=O)c3ccccc3)CC2)=C(C)C1=O` (centres unmarked) [2-(4-(4-benzoylpiperazin-1-yl)-3-hydroxy-3-methyl-4-oxobutyl)-3,5,6-trimethylcyclohexa-2,5-diene-1,4-dione], for which the EC50 in assay [1] is under 100 nM.
On the same count and under the same terms, the same measure for `CC1=C(C)C(=O)C(CCC(C)(O)C(=O)N2CCCCCC2)=C(C)C1=O` (centres unmarked) [2-(4-(azepan-1-yl)-3-hydroxy-3-methyl-4-oxobutyl)-3,5,6-trimethylcyclohexa-2,5-diene-1,4-dione]: under 100 nM.
On the same count and under the same terms, the same measure for `CC1=C(C)C(=O)C(CCC(C)(O)C(=O)NCCCS(C)(=O)=O)=C(C)C1=O` (centres unmarked) [2-hydroxy-2-methyl-N-(3-(methylsulfonyl)propyl)-4-(2,4,5-trimethyl-3,6-dioxocyclohexa-1,4-dienyl)butanamide]: under 100 nM.
For the molecule `CC1=C(C)C(=O)C(CCC(C)(O)C(=O)NCc2ccncc2)=C(C)C1=O` (centres unmarked) [2-hydroxy-2-methyl-N-(pyridin-4-ylmethyl)-4-(2,4,5-trimethyl-3,6-dioxocyclohexa-1,4-dienyl)butanamide], in assay [1], the EC50 was under 100 nM.
On to `COc1ccc(NC(=O)C(C)(O)CCC2=C(C)C(=O)C(C)=C(C)C2=O)cc1` (centres unmarked) [2-hydroxy-N-(4-methoxyphenyl)-2-methyl-4-(2,4,5-trimethyl-3,6-dioxocyclohexa-1,4-dienyl)butanamide], for which the EC50 in assay [2] (setting [4]) and in assay [3] was under 100 nM in each case.
For the molecule `CC1=C(C)C(=O)C(CC[C@@](C)(O)C(=O)N2CCC(O)CC2)=C(C)C1=O` [(R)-2-(3-hydroxy-4-(4-hydroxypiperidin-1-yl)-3-methyl-4-oxobutyl)-3,5,6-trimethylcyclohexa-2,5-diene-1,4-dione], the concentration giving a half-maximal response (EC50) in assay [2] (setting [4]) and in assay [1] was under 100 nM throughout.
Consider `CC(=O)N1CCN(C(=O)[C@](C)(O)CCC2=C(C)C(=O)C(C)=C(C)C2=O)CC1` [(R)-2-(4-(4-acetylpiperazin-1-yl)-3-hydroxy-3-methyl-4-oxobutyl)-3,5,6-trimethylcyclohexa-2,5-diene-1,4-dione], for which the EC50 in assay [2] (setting [4]), in assay [3] and in assay [1] was under 100 nM each time.
Turning to `CC1=C(C)C(=O)C(CC[C@@](C)(O)C(N)=O)=C(C)C1=O` [(R)-2-hydroxy-2-methyl-4-(2,4,5-trimethyl-3,6-dioxocyclohexa-1,4-dienyl)butanamide], the EC50 in assay [2] (setting [4]), in assay [3] and in assay [1] was under 100 nM throughout.
With `CC1=C(C)C(=O)C(CC[C@](C)(O)C(=O)N2CCC(O)CC2)=C(C)C1=O` [(S)-2-(3-hydroxy-4-(4-hydroxypiperidin-1-yl)-3-methyl-4-oxobutyl)-3,5,6-trimethylcyclohexa-2,5-diene-1,4-dione], the EC50 in assay [2] (setting [4]) and in assay [1] was under 100 nM throughout.
For the molecule `CC(=O)N1CCN(C(=O)[C@@](C)(O)CCC2=C(C)C(=O)C(C)=C(C)C2=O)CC1` [(S)-2-(4-(4-acetylpiperazin-1-yl)-3-hydroxy-3-methyl-4-oxobutyl)-3,5,6-trimethylcyclohexa-2,5-diene-1,4-dione], the EC50 in assay [2] (setting [4]), in assay [3] and in assay [1] was under 100 nM throughout.
With `CC1=C(C)C(=O)C(CCC(C)(O)C(=O)NCCC(C)C)=C(C)C1=O` (centres unmarked) [Example 7, 2-Hydroxy-N-isopentyl-2-methyl-4-(2,4,5-trimethyl-3,6-dioxocyclohexa-1,4-dienyl)butanamide], in assay [1], the EC50 was under 100 nM.
In the case of `CC1=C(C)C(=O)C(CCC(C)(O)C(=O)N2CCN(C)CC2)=C(C)C1=O` (centres unmarked) [Example 14, 2-(3-Hydroxy-3-methyl-4-(4-methylpiperazin-1-yl)-4-oxobutyl)-3,5,6-trimethylcyclohexa-2,5-diene-1,4-dione], the concentration giving a half-maximal response (EC50) in assay [2] (setting [4]) and in assay [3] was under 100 nM in each case.
`CC1=C(C)C(=O)C(CCC(C)(O)C(=O)NCCCN2CCCC2=O)=C(C)C1=O` (centres unmarked) [Example 29, 2-Hydroxy-2-methyl-N-(3-(2-oxopyrrolidin-1-yl)-propyl)-4-(2,4,5-trimethyl-3,6-dioxocyclohexa-1,4-dienyl)butanamide]: the EC50 in assay [3] is under 100 nM.
With `CC1=C(C)C(=O)C(CCC(C)(O)C(=O)NCC(C)O)=C(C)C1=O` (centres unmarked) [Example 30, 2-Hydroxy-N-(2-hydroxypropyl)-2-methyl-4-(2,4,5-trimethyl-3,6-dioxocyclohexa-1,4-dienyl)butanamide], the half-maximal effective concentration (EC50) in assay [2] (setting [4]) and in assay [1] was under 100 nM throughout.
In the case of `CC1=C(C)C(=O)C(CCC(C)(O)C(=O)NCCCN2CCOCC2)=C(C)C1=O` (centres unmarked) [Example 33, 2-Hydroxy-2-methyl-N-(3-morpholinopropyl)-4-(2,4,5-trimethyl-3,6-dioxocyclohexa-1,4-dienyl)butanamide], the 50% effective concentration (EC50) in assay [2] (setting [4]) and in assay [3] was under 100 nM throughout.
Turning to `CC1=C(C)C(=O)C(CCC(C)(O)C(=O)N(CCO)CCO)=C(C)C1=O` (centres unmarked) [Example 35, 2-Hydroxy-N,N-bis(2-hydroxyethyl)-2-methyl-4-(2,4,5-trimethyl-3,6-dioxocyclohexa-1,4-dienyl)butanamide], the EC50 in assay [2] (setting [4]) and in assay [3] was under 100 nM throughout.
For the molecule `CC1=C(C)C(=O)C(CCC(C)(O)C(=O)N2CCCCC2)=C(C)C1=O` (centres unmarked) [Example 42, 2-(3-Hydroxy-3-methyl-4-oxo-4-(piperidin-1-yl)butyl)-3,5,6-trimethylcyclohexa-2,5-diene-1,4-dione], in assay [1], the concentration for a half-maximal effect (EC50) was under 100 nM.
With `COC1=C(OC)C(=O)C(CCCCCCCCCCO)=C(C)C1=O` [Idebenone, reference compound], the EC50 in assay [2] (setting [5]) is 1200 nM; in assay [2] (setting [6]), 1500 nM; in assay [2] (setting [7]), 1000 nM; in assay [2] (setting [8]), 1000 nM.
With `CC1=C(C)C(=O)C(CCC(C)(O)C(=O)NCCc2ccccc2F)=C(C)C1=O` (centres unmarked) [N-(2-fluorophenethyl)-2-hydroxy-2-methyl-4-(2,4,5-trimethyl-3,6-dioxocyclohexa-1,4-dienyl)butanamide], the concentration for a half-maximal effect (EC50) in assay [2] (setting [4]) and in assay [1] was under 100 nM throughout.
`CC1=C(C)C(=O)C(CCC(C)(O)C(=O)NCCc2cccc(F)c2)=C(C)C1=O` (centres unmarked) [N-(3-fluorophenethyl)-2-hydroxy-2-methyl-4-(2,4,5-trimethyl-3,6-dioxocyclohexa-1,4-dienyl)butanamide]: the EC50 in assay [2] (setting [4]) and in assay [1] was under 100 nM throughout.
As to `Cc1c(C)c2c(c(C)c1O)CCC(C)(C(=O)O)O2` (centres unmarked) [Trolox, 6-Hydroxy-2,5,7,8-tetramethylchroman-2-carboxylic acid, reference compound], the EC50 was 8700 nM in assay [2] (setting [5]), 9000 nM in assay [2] (setting [6]), 9000 nM in assay [2] (setting [7]) and 8000 nM in assay [2] (setting [8]).
On to `CC(=O)Oc1c(C)c(C)c2c(c1C)CCC(C)(CCC[C@H](C)CCC[C@H](C)CCCC(C)C)O2` (stereo partly drawn) [alpha-tocopherol acetate, (+)-α-tocopherol acetate, reference compound], for which the half-maximal effective concentration (EC50) in assay [2] (setting [5]) is 300 nM; in assay [2] (setting [6]), 400 nM; in assay [2] (setting [7]) it was 150 nM; in assay [2] (setting [8]), 350 nM.
As to `CCCCCCCCCCC1=C(C)C(=O)C(OC)=C(OC)C1=O` [decylubiquinone, reference compound], the EC50 in assay [2] (setting [5]) is 38 nM; in assay [2] (setting [6]) it was 50 nM; in assay [2] (setting [7]), 35 nM; in assay [2] (setting [8]), 30 nM.
